Laboratory results from ChEMBL document CHEMBL1201862, “PubChem BioAssay data set” (2004).
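Cells were grown in 96-well plates and exposed to each compound for 48 hours at five concentrations; endpoints were interpolated linearly between bracketing concentrations, or set to the highest concentration if not reached. At the GI50, growth is halved.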 Active and inactive are the calls of the source. Rule as the data show it: active = GI50 up to about 1.1 µM and inactive = higher.

Key:
Assay in all cases: DTP human tumour cell line panel, 48 h
SK-MEL-2 = tested on: SK-MEL-2
RPMI-8226 = tested on: RPMI-8226
SF-295 = tested on: SF-295
SF-268 = tested on: SF-268
OVCAR-5 = tested on: OVCAR-5
NCI-H23 = tested on: NCI-H23
M14 = tested on: M14
SK-OV-3 = tested on: SK-OV-3
K562 = tested on: K562
OVCAR-8 = tested on: OVCAR-8
HOP-92 = tested on: HOP-92
UACC-257 = tested on: UACC-257
LXFL 529 = tested on: LXFL 529
IGROV-1 = tested on: IGROV-1
NCI-H522 = tested on: NCI-H522
SNB-19 = tested on: SNB-19
NCI/ADR-RES = tested on: NCI/ADR-RES
DU-145 = tested on: DU-145
BT-549 = tested on: BT-549
Hs-578T = tested on: Hs-578T

SMILES	GI50 (SK-MEL-2)	GI50 (RPMI-8226)	GI50 (SF-295)	GI50 (SF-268)	GI50 (OVCAR-5)	GI50 (NCI-H23)	GI50 (M14)	GI50 (SK-OV-3)	GI50 (K562)	GI50 (OVCAR-8)	GI50 (HOP-92)	GI50 (UACC-257)	GI50 (LXFL 529)	GI50 (IGROV-1)	GI50 (NCI-H522)	GI50 (SNB-19)	GI50 (NCI/ADR-RES)	GI50 (DU-145)	GI50 (BT-549)	GI50 (Hs-578T)
O=C(C(=O)c1cc2ccccc2[nH]1)c1cc2ccccc2[nH]1	> 347 µM (inactive)	22 µM (inactive)	> 347 µM (inactive)	> 347 µM (inactive)	> 347 µM (inactive)	> 255 µM (inactive)	213 µM (inactive)	> 347 µM (inactive)	> 332 µM (inactive)	> 224 µM (inactive)	> 127 µM (inactive)	> 204 µM (inactive)	> 210 µM (inactive)	> 347 µM (inactive)	13.8 µM (inactive)	> 347 µM (inactive)	–	–	–	–
O=c1c2cccc3cccc(c4oc5c6cccc7cccc(c(=O)c5c14)c76)c32	15.7 µM (inactive)	12.8 µM (inactive)	17.9 µM (inactive)	13 µM (inactive)	27.2 µM (inactive)	13.2 µM (inactive)	12.4 µM (inactive)	28.9 µM (inactive)	> 10 µM (inactive)	11.1 µM (inactive)	8.22 µM (inactive)	17.1 µM (inactive)	11.1 µM (inactive)	16.9 µM (inactive)	5.4 µM (inactive)	11.6 µM (inactive)	–	–	–	–
O=C(O)CCC(=O)N1c2ccccc2CC1c1c[nH]c2ccccc12 (stereo not drawn)	> 100 µM (inactive)	> 100 µM (inactive)	> 100 µM (inactive)	> 100 µM (inactive)	> 100 µM (inactive)	> 100 µM (inactive)	> 100 µM (inactive)	> 100 µM (inactive)	> 100 µM (inactive)	> 100 µM (inactive)	> 100 µM (inactive)	> 100 µM (inactive)	> 100 µM (inactive)	> 100 µM (inactive)	76.6 µM (inactive)	> 100 µM (inactive)	–	–	–	–
Brc1cccc(/C=N/C23CC4CC(CC(C4)C2)C3)c1	> 100 µM (inactive)	> 100 µM (inactive)	> 100 µM (inactive)	> 100 µM (inactive)	> 100 µM (inactive)	> 100 µM (inactive)	> 100 µM (inactive)	> 100 µM (inactive)	> 100 µM (inactive)	> 100 µM (inactive)	> 100 µM (inactive)	> 100 µM (inactive)	> 100 µM (inactive)	> 100 µM (inactive)	> 100 µM (inactive)	> 100 µM (inactive)	–	–	–	–
O=C1Nc2ccccc2N/C1=C\C(=O)c1ccccc1O	> 100 µM (inactive)	> 100 µM (inactive)	> 100 µM (inactive)	> 100 µM (inactive)	> 100 µM (inactive)	> 100 µM (inactive)	> 100 µM (inactive)	> 100 µM (inactive)	> 100 µM (inactive)	> 100 µM (inactive)	> 100 µM (inactive)	> 100 µM (inactive)	> 100 µM (inactive)	> 100 µM (inactive)	> 100 µM (inactive)	> 100 µM (inactive)	–	–	–	–
O=c1[nH]c(=O)n(C2OC(CO)C(O)C2O)cc1OCc1ccccc1 (stereo not drawn)	> 100 µM (inactive)	> 57.9 µM (inactive)	> 100 µM (inactive)	> 100 µM (inactive)	> 100 µM (inactive)	> 100 µM (inactive)	> 100 µM (inactive)	> 100 µM (inactive)	> 73.3 µM (inactive)	> 77.6 µM (inactive)	> 100 µM (inactive)	> 100 µM (inactive)	> 80.4 µM (inactive)	> 100 µM (inactive)	> 100 µM (inactive)	> 100 µM (inactive)	–	–	–	–
COCC(=O)OC1CCn2c1nc1c2C(=O)C(C)=C(NC(C)=O)C1=O (stereo not drawn)	4.04 µM (inactive)	2.33 µM (inactive)	16.3 µM (inactive)	6.73 µM (inactive)	8.57 µM (inactive)	7.85 µM (inactive)	11.1 µM (inactive)	15.4 µM (inactive)	2.79 µM (inactive)	3.48 µM (inactive)	1.98 µM (inactive)	3.97 µM (inactive)	3.35 µM (inactive)	14.5 µM (inactive)	4.57 µM (inactive)	19.6 µM (inactive)	4.49 µM (inactive)	15.3 µM (inactive)	11.7 µM (inactive)	4.06 µM (inactive)
COc1ccc(CN[C@H]2CCc3cc(OC)c(OC)c(OC)c3-c3ccc(SC)c(=O)cc32)c(OC)c1OC	0.0282 µM (active)	0.0352 µM (active)	0.0296 µM (active)	0.0366 µM (active)	0.0421 µM (active)	0.0219 µM (active)	0.0308 µM (active)	0.0293 µM (active)	0.0346 µM (active)	0.0277 µM (active)	0.0681 µM (active)	0.0811 µM (active)	0.0447 µM (active)	0.135 µM (active)	0.0216 µM (active)	0.0658 µM (active)	–	–	–	–
Nc1ncnc2c1ncn2COC/C=C/I	> 100 µM (inactive)	> 100 µM (inactive)	> 100 µM (inactive)	> 100 µM (inactive)	> 100 µM (inactive)	> 100 µM (inactive)	> 100 µM (inactive)	> 100 µM (inactive)	> 100 µM (inactive)	> 100 µM (inactive)	> 100 µM (inactive)	> 100 µM (inactive)	> 100 µM (inactive)	> 100 µM (inactive)	> 100 µM (inactive)	> 100 µM (inactive)	–	–	–	–
CNC(=O)/C(=C/c1ccc(OC)cc1)c1cc(OC)c(OC)c(OC)c1	3.89 µM (inactive)	2.99 µM (inactive)	0.552 µM (active)	4.83 µM (inactive)	20.7 µM (inactive)	3.52 µM (inactive)	1.45 µM (inactive)	1.6 µM (inactive)	0.546 µM (active)	4.12 µM (inactive)	13.9 µM (inactive)	5.08 µM (inactive)	4.43 µM (inactive)	4.76 µM (inactive)	0.735 µM (active)	4.58 µM (inactive)	1.98 µM (inactive)	2.74 µM (inactive)	50.8 µM (inactive)	1.61 µM (inactive)
